Experimental data reported in US7807673B2, “2-pyrimidinyl pyrazolopyridine ErbB kinase inhibitors” (GlaxoSmithKline LLC, priority 2005, dated 2010).

Tests used:
Colo205 tumor cell lines = experiment: Celltiter Glo growth inhibition assay (cellular Method B); type: cell-based; details: Homo sapiens, COLO 205, 72 h, Table 3, Method B Celltiter Glo, 3 days
Protocol: (§1) Human breast tumor cells (BT474) were cultured in RPMI, (Invitrogen, 22400) containing 10% fetal bovine serum (FBS). Human head and neck tumor cells (HN5) were cultured in low glucose DMEM (Invitrogen, 12320) containing 10% FBS. Human colon tumor cells (Colo205) were cultured in DMEM (Invitrogen, 10564) containing 10% FBS. All cell lines were maintained at 37° C. in a humidified 5% CO2, 95% air incubator. Cells were harvested using trypsin/EDTA, counted using a haemocytometer, and plated in 30 microliters of the appropriate media described above, at the following densities, in a half area, black-walled, 96-well tissue culture plate (Corning 3882): BT474 3,000 cells/well, HN5 500 cells/well and Colo205 cells, 3,000 cells/well. The next day, compounds were diluted in DMEM containing 100 mg/ml gentamicin, from 10 mM stock solutions in DMSO. 30 microliters/well of these dilutions were added to the 30 microliters/well of media currently on the cell plates. Medium containing 0.6% DMSO was added to control wells. The final concentration of DMSO in all wells was 0.3%. Cells were incubated at 37° C., 5% CO2 for 3 days. Cell biomass was estimated using Celltiter Glo (Promega G7571). Briefly, plates were removed from the incubator and allowed to equilibrate to rt for 30 minutes. 60 microliters of Celltiter Glo reagent were added to each well of the treated cells and plates were shaken on an orbital plate shaker for 2 min. Plates were incubated without shaking for 30 more min and read in a luminometer with an integration time of 0.5 seconds per well. Percent inhibition of cell growth was calculated relative to vehicle treated control wells. Concentration of compound that inhibits 50% of vehicle control cell growth (IC50) was interpolated using nonlinear regression (Levenberg-Marquardt) and the equation, y=Vmax*(1−(x/(K+x)))+Y2, where “K” was equal to the IC50.

[1] = tested on: BT474 and HN5 tumor cell lines; experiment: as above; type: cell-based; details: Homo sapiens, BT-474, 72 h; Table 2, Method B Celltiter Glo, 3 days; class over BT474 and HN5;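 further: class counts the more potent of the two cell lines (BT474 or HN5)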
Protocol: as §1

ErbB2 or EGFR = molecular target: T1, ErbB2 or EGFR; experiment: ErbB enzyme substrate phosphorylation assay (HTRF), Method B (enzyme pre-incubated with compound 1 hour); type: biochemical; details: Table 1, enzyme Method B: enzyme mix incubated with compound 1 hour at 20° C., reaction started with substrate mix; class over ErbB2 or EGFR
T1 construct: enzymes purified from a baculovirus expression system
Protocol: Compounds of the present invention were tested for EGFR, ErbB-2, and ErbB-4 protein tyrosine kinase inhibitory activity in substrate phosphorylation assays using enzymes purified from a baculovirus expression system. Reagent production was conducted essentially as described in Brignola, P. S., et al, (2002) J. Biol. Chem. 277(2): 1576-1585.
The method measures the ability of the isolated enzyme to catalyse the transfer of the gamma-phosphate from ATP onto the tyrosine residue of a biotinylated synthetic peptide referenced “Peptide C” in Brignola, P. S., et al, (2002) J. Biol. Chem. 277(2):1576-1585. The extent of tyrosine phosphorylation was measured using an anti-phosphotyrosine antibody, and quantified by homogenous time-resolved fluorescence (HTRF).
Reactions were performed in black 384-well polystyrene flat-bottom plates in a final volume of 20 μl. Assays were performed by adding 10 μl of each of the following solutions, substrate Mix and enzyme mix: The Substrate mix contained 100 mM 3-[N-morpholino]propanesulfonic acid (MOPS) (pH 7.5), 2 mM MnCl2, 20 μM ATP, 0.01% Tween-20, 0.1 mg/mL (BSA), 0.8 uM peptide substrate, and 1 mM dithiothreitol. The enzyme mix contained 100 mM MOPS (pH7.5); 0.01% Tween-20; 0.1 mg/mL BSA, and either 0.8 nM EGFR, 10 nM ErbB2, or 1 nM ErbB4
During the course of these studies, two separate methods have been used to measure the potency of compounds. In Method A, the substrate mix was added to the compound plates first, then the reaction was started by adding the enzyme mix. In Method B, the enzyme mix was added to the compound plates and the plates were incubated at 20° C. for 1 hour. The reactions were then started by adding the substrate mix.
After initiating the reaction with either method describe above, the reactions were allowed to proceed for 90 minutes at 20° C. The reactions were then terminated by the addition of 20 μl 100 mM EDTA to each well. 40 μl/well of HTRF detection mix were added to the assay plates. The final concentrations of the detection reagents were: 100 mM HEPES (pH7.5), 0.1 mg/mL BSA, 15 nM streptavidin-labeled allophycocyanin (PerkinElmer), and 1 nM europium-labeled anti-phosphotyrosine antibody (PerkinElmer). Assay plates were left unsealed and were counted in a Wallac Multilabel Counter 1420 (PerkinElmer).
Compounds under analysis were dissolved in Me2SO to 1.0 mM and serially diluted 1 to 3 with Me2SO through twelve dilutions. 1 μl of each concentration was transferred to the corresponding well of an assay plate. This creates a final compound concentration range from 0.00027 to 47.6 μM.
The data for dose responses were plotted as % Inhibition calculated with the data reduction formula 100*(1−(U1−C2)/(C1−C2)) versus concentration of compound where U is the unknown value, C1 is the average control value obtained for 4.76% DMSO, and C2 is the average control value obtained for 0.035 M EDTA. Data were fitted with a curve described by: y=((Vmax*x)/(K+x))+Y2 where Vmax is the upper asymptote, Y2 is the Y intercept, and K is the IC50. The results for each compound were recorded as pIC50s, calculated as follows: pIC50=−Log 10(K)

| IC50 (Colo205 tumor cell lines) | IC50 [1] | SMILES | Activity (Method) (ErbB2 or EGFR) |
| --- | --- | --- | --- |
| > 1000 nM | 100 to 1000 nM | O=C(Cc1cccnc1)Nc1cccc(-c2nn3ccccc3c2-c2ccnc(Nc3cccc(-c4cnco4)c3)n2)c1 [Example 21, N-{3-[3-(2-{[3-(1,3-Oxazol-5-yl)phenyl]amino}-4-pyrimidinyl)pyrazolo[1,5-a]pyridin-2-yl]phenyl}-2-(3-pyridinyl)acetamide] | +++ (B) (at least one pIC50 measurement of greater than 7 against either ErbB2 or EGFR) |
| > 1000 nM | > 1000 nM | O=C(Cc1ccncc1)Nc1cccc(-c2nn3ccccc3c2-c2ccnc(Nc3cccc(-c4cnco4)c3)n2)c1 [Example 22, N-{3-[3-(2-{[3-(1,3-Oxazol-5-yl)phenyl]amino}-4-pyrimidinyl)pyrazolo[1,5-a]pyridin-2-yl]phenyl}-2-(4-pyridinyl)acetamide] | +++ (B) (at least one pIC50 measurement of greater than 7 against either ErbB2 or EGFR) |
| 100 to 1000 nM | 100 to 1000 nM | O=C(Cc1ccccn1)Nc1cccc(-c2nn3ccccc3c2-c2ccnc(Nc3cccc(-c4cnco4)c3)n2)c1 [Example 23, N-{3-[3-(2-{[3-(1,3-Oxazol-5-yl)phenyl]amino}-4-pyrimidinyl)pyrazolo[1,5-a]pyridin-2-yl]phenyl}-2-(2-pyridinyl)acetamide] | +++ (B) (at least one pIC50 measurement of greater than 7 against either ErbB2 or EGFR) |
| > 1000 nM | > 1000 nM | CN1CCc2ccc(Nc3nccc(-c4c(-c5cccc(NC(=O)Cc6cccs6)c5)nn5cccc(F)c45)n3)cc2C1 [Example 30, N-[3-(4-fluoro-3-{2-[(2-methyl-1,2,3,4-tetrahydro-7-isoquinolinyl)amino]-4-pyrimidinyl}pyrazolo[1,5-a]pyridin-2-yl)phenyl]-2-(2-thienyl)acetamide] | ++ (B) (at least one pIC50 measurement greater than 6 against either ErbB2 or EGFR but no measurement greater than pIC50 of 7) |

Continued, compound first:

| SMILES | IC50 (Colo205 tumor cell lines) | IC50 [1] | Activity (Method) (ErbB2 or EGFR) |
| --- | --- | --- | --- |
| O=C(Cc1ccsc1)Nc1cccc(-c2nn3ccccc3c2-c2ccnc(Nc3cccc(-c4cnco4)c3)n2)c1 [Example 17, N-{3-[3-(2-{[3-(1,3-Oxazol-5-yl)phenyl]amino}-4-pyrimidinyl)pyrazolo[1,5-a]pyridin-2-yl]phenyl}-2-(3-thienyl)acetamide] | 100 to 1000 nM | 100 to 1000 nM | +++ (B) (at least one pIC50 measurement of greater than 7 against either ErbB2 or EGFR) |
| O=C(Cc1c[nH]c2ccccc12)Nc1cccc(-c2nn3ccccc3c2-c2ccnc(Nc3cccc(-c4cnco4)c3)n2)c1 [Example 18, 2-(1H-Indol-3-yl)-N-{3-[3-(2-{[3-(1,3-oxazol-5-yl)phenyl]amino}-4-pyrimidinyl)pyrazolo[1,5-a]pyridin-2-yl]phenyl}acetamide] | > 1000 nM | 100 to 1000 nM | ++ (B) (at least one pIC50 measurement greater than 6 against either ErbB2 or EGFR but no measurement greater than pIC50 of 7) |
| Cc1cc(CC(=O)Nc2cccc(-c3nn4ccccc4c3-c3ccnc(Nc4cccc(-c5cnco5)c4)n3)c2)on1 [Example 19, 2-(3-Methyl-5-isoxazolyl)-N-{3-[3-(2-{[3-(1,3-oxazol-5-yl)phenyl]amino}-4-pyrimidinyl)pyrazolo[1,5-a]pyridin-2-yl]phenyl}acetamide] | > 1000 nM | 100 to 1000 nM | +++ (B) (at least one pIC50 measurement of greater than 7 against either ErbB2 or EGFR) |
| O=C(Cc1c(F)cccc1F)Nc1cccc(-c2nn3ccccc3c2-c2ccnc(Nc3cccc(-c4cnco4)c3)n2)c1 [Example 20, 2-(2,6-Difluorophenyl)-N-{3-[3-(2-{[3-(1,3-oxazol-5-yl)phenyl]amino}-4-pyrimidinyl)pyrazolo[1,5-a]pyridin-2-yl]-phenyl}acetamide] | 100 to 1000 nM | 100 to 1000 nM | +++ (B) (at least one pIC50 measurement of greater than 7 against either ErbB2 or EGFR) |
